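Values below derive from 48-hour exposures of cells grown in 96-well plates, with endpoints linearly interpolated between the two concentrations bracketing the appropriate inhibition level. GI50: concentration for 50% inhibition of growth. The concentration for full growth arrest is given as TGI.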
Columns and labels:
Experiment in all cases: growth of human tumour cells (NCI), 48 h
COLO 205 colon = system: COLO 205 colon
A549 NSCLC = system: A549 NSCLC
RPMI-8226 leukemia = system: RPMI-8226 leukemia
SNB-75 CNS = system: SNB-75 CNS
NCI-H23 lung = system: NCI-H23 lung
786-0 renal = system: 786-0 renal
HOP-62 NSCLC = system: HOP-62 NSCLC
KM12 colon = system: KM12 colon
SF-539 CNS = system: SF-539 CNS
OVCAR-5 ovarian = system: OVCAR-5 ovarian
T-47D breast = system: T-47D breast
SN12C renal = system: SN12C renal
OVCAR-3 ovarian = system: OVCAR-3 ovarian
RXF 393 renal = system: RXF 393 renal
HCT-116 colon = system: HCT-116 colon
OVCAR-4 ovarian = system: OVCAR-4 ovarian
UACC-257 melanoma = system: UACC-257 melanoma
A498 renal = system: A498 renal
HS 578T breast = system: HS 578T breast
NCI-H460 lung = system: NCI-H460 lung
OVCAR-8 ovarian = system: OVCAR-8 ovarian
UO-31 renal = system: UO-31 renal
SF-295 CNS = system: SF-295 CNS
ACHN renal = system: ACHN renal
PC-3 prostate = system: PC-3 prostate
NCI/ADR-RES ovarian = system: NCI/ADR-RES ovarian
SF-268 CNS = system: SF-268 CNS
SK-OV-3 ovarian = system: SK-OV-3 ovarian
M14 melanoma = system: M14 melanoma
LOX IMVI melanoma = system: LOX IMVI melanoma
HOP-92 NSCLC = system: HOP-92 NSCLC
MALME-3M melanoma = system: MALME-3M melanoma
SR leukemia = system: SR leukemia
SK-MEL-28 melanoma = system: SK-MEL-28 melanoma
NCI-H522 lung = system: NCI-H522 lung
SNB-19 CNS = system: SNB-19 CNS
HCC-2998 colon = system: HCC-2998 colon
BT-549 breast = system: BT-549 breast
TK-10 renal = system: TK-10 renal
DU-145 prostate = system: DU-145 prostate
MOLT-4 leukemia = system: MOLT-4 leukemia
HT29 colon = system: HT29 colon
NCI-H226 lung = system: NCI-H226 lung
U251 CNS = system: U251 CNS
SW-620 colon = system: SW-620 colon
EKVX NSCLC = system: EKVX NSCLC
SK-MEL-2 melanoma = system: SK-MEL-2 melanoma
MDA-MB-231 breast = system: MDA-MB-231 breast
MDA-MB-435 = system: MDA-MB-435
K-562 leukemia = system: K-562 leukemia
UACC-62 melanoma = system: UACC-62 melanoma
HCT-15 colon = system: HCT-15 colon
HL-60(TB) leukemia = system: HL-60(TB) leukemia
CAKI-1 renal = system: CAKI-1 renal
CCRF-CEM leukemia = system: CCRF-CEM leukemia
MCF7 breast = system: MCF7 breast
IGROV1 ovarian = system: IGROV1 ovarian
SK-MEL-5 melanoma = system: SK-MEL-5 melanoma

## COC(=O)c1c2c(c(C)[n+]([O-])c1C)C(=O)C(NCc1cccc(Cl)c1)=CC2=O
COLO 205 colon
  GI50: 388 nM
  TGI: 1550 nM
A549 NSCLC
  GI50: 1940 nM
  TGI: 6.17 µM
RPMI-8226 leukemia
  GI50: 2140 nM
  TGI: 7.81 µM
SNB-75 CNS
  GI50: 2100 nM
  TGI: 5.07 µM
NCI-H23 lung
  GI50: 1230 nM
  TGI: 3.25 µM
786-0 renal
  GI50: 2650 nM
  TGI: 13.9 µM
HOP-62 NSCLC
  GI50: 2300 nM
  TGI: 9.62 µM
KM12 colon
  GI50: 1560 nM
  TGI: 9.73 µM
SF-539 CNS
  GI50: 1800 nM
  TGI: 3.26 µM
OVCAR-5 ovarian
  GI50: 1810 nM
  TGI: 3.63 µM
T-47D breast
  GI50: 1690 nM
  TGI: 4.41 µM
SN12C renal
  GI50: 1020 nM
  TGI: 2440 nM
OVCAR-3 ovarian
  GI50: 322 nM
  TGI: 1170 nM
RXF 393 renal
  GI50: 1480 nM
  TGI: 3.37 µM
HCT-116 colon
  GI50: 679 nM
  TGI: 4.9 µM
OVCAR-4 ovarian
  GI50: 507 nM
  TGI: 1850 nM
UACC-257 melanoma
  GI50: 701 nM
  TGI: 2280 nM
A498 renal
  GI50: 1560 nM
  TGI: 3.18 µM
HS 578T breast
  GI50: 2320 nM
  TGI: 6.91 µM
NCI-H460 lung
  GI50: 659 nM
  TGI: 7.92 µM
OVCAR-8 ovarian
  GI50: 1520 nM
  TGI: 9.78 µM
UO-31 renal
  GI50: 1530 nM
  TGI: 3.23 µM
SF-295 CNS
  GI50: 1310 nM
  TGI: 2720 nM
ACHN renal
  GI50: 1520 nM
  TGI: 3.58 µM
PC-3 prostate
  GI50: 1620 nM
  TGI: 17.9 µM
NCI/ADR-RES ovarian
  GI50: 1640 nM
  TGI: 5.81 µM
SF-268 CNS
  GI50: 2530 nM
  TGI: 12.9 µM
SK-OV-3 ovarian
  GI50: 3.05 µM
  TGI: 12.8 µM
M14 melanoma
  GI50: 1060 nM
  TGI: 2400 nM
LOX IMVI melanoma
  GI50: 1760 nM
  TGI: 5.58 µM
HOP-92 NSCLC
  GI50: 2220 nM
  TGI: 4.54 µM
MALME-3M melanoma
  GI50: 171 nM
  TGI: 432 nM
SR leukemia
  GI50: 1850 nM
  TGI: > 100 µM
SK-MEL-28 melanoma
  GI50: 3.17 µM
  TGI: 15 µM
NCI-H522 lung
  GI50: 1910 nM
  TGI: 4.62 µM
SNB-19 CNS
  GI50: 2450 nM
  TGI: 7.8 µM
HCC-2998 colon
  GI50: 1820 nM
  TGI: 4.46 µM
BT-549 breast
  GI50: 1540 nM
  TGI: 3.07 µM
TK-10 renal
  GI50: 3.69 µM
  TGI: 15.3 µM
DU-145 prostate
  GI50: 1910 nM
  TGI: 4.2 µM
MOLT-4 leukemia
  GI50: 2010 nM
  TGI: 5.68 µM
HT29 colon
  GI50: 634 nM
  TGI: > 100 µM
NCI-H226 lung
  GI50: 2100 nM
  TGI: 4.67 µM
U251 CNS
  GI50: 2100 nM
  TGI: 7.52 µM
SW-620 colon
  GI50: 1010 nM
  TGI: 4.31 µM
EKVX NSCLC
  GI50: 1510 nM
  TGI: 3.61 µM
SK-MEL-2 melanoma
  GI50: 1950 nM
  TGI: 4.6 µM
MDA-MB-231 breast
  GI50: 1180 nM
  TGI: 4.88 µM
MDA-MB-435
  GI50: 344 nM
  TGI: 1130 nM
K-562 leukemia
  GI50: 2170 nM
  TGI: > 100 µM
UACC-62 melanoma
  GI50: 1240 nM
  TGI: 2840 nM
HCT-15 colon
  GI50: 1100 nM
  TGI: 2750 nM
HL-60(TB) leukemia
  GI50: 628 nM
  TGI: 3.55 µM
CAKI-1 renal
  GI50: 1970 nM
  TGI: 5.63 µM
CCRF-CEM leukemia
  GI50: 2290 nM
  TGI: 8.53 µM
MCF7 breast
  GI50: 1100 nM
  TGI: 2770 nM
IGROV1 ovarian
  GI50: 1170 nM
  TGI: 2980 nM
SK-MEL-5 melanoma
  GI50: 200 nM
  TGI: 448 nM

— PubChem BioAssay (NCI)
